# Measured values reported in BindingDB's records for doi:10.7270/Q2PZ576Z (The Scripps Research Institute Molecular Screening Center, 2007).
# Target: Sphingosine 1-phosphate receptor 3 (Homo sapiens, UniProt Q99500)
# Test: S1P3 receptor activation, EC50 – cell-based, NFAT-BLA reporter, dose response (AID 439)
# Conditions: not given
# Sequence of Sphingosine 1-phosphate receptor 3 (Q99500 whole entry): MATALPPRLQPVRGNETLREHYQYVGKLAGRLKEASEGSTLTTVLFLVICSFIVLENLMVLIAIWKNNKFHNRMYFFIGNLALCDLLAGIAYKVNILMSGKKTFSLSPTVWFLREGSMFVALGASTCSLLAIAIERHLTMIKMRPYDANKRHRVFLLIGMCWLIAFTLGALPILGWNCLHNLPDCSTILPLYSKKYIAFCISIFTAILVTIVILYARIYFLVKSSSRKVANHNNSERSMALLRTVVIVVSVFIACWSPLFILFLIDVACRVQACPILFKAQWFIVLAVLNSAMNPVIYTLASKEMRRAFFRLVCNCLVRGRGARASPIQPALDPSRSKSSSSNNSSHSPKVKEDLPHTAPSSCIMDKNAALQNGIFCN
row,Compound,EC50
1,Clc1ccc2nc(N3CCNCC3)nc(-c3ccccc3)c2c1,> 45 µM
2,CC(=O)Oc1ccc2cc(-c3nc4ccccc4n3C)c(=O)oc2c1,6.42 µM
3,Cc1cc(NC(=O)NC(=O)c2cccc(OC(F)(F)C(F)F)c2)[nH]n1,> 45 µM
4,"CCCSc1nc(N2CCOCC2)c2c(c1C#N)CCCC2 [1-(4-morpholinyl)-3-(propylthio)-5,6,7,8-tetrahydroisoquinoline-4-carbonitrile]",4.34 µM
5,"Cc1cc(C)n(-c2nc(NCC(C)O)c3c4c(sc3n2)CCCC4)n1 (stereo not drawn) [1-[[2-(3,5-dimethyl-1-pyrazolyl)-5,6,7,8-tetrahydro-[1]benzothiolo[2,3-d]pyrimidin-4-yl]amino]-2-propanol]",7.79 µM
6,"O=C(OCCN1C(=O)c2ccccc2C1=O)c1cccc(OC(F)F)c1 [2-(1,3-dioxoisoindol-2-yl)ethyl 3-(difluoromethoxy)benzoate]",> 45 µM
7,"Cc1cc(C)nc(-n2nc(C)c(Sc3ccc(F)cc3)c2N)n1 [2-(4,6-dimethyl-2-pyrimidinyl)-4-[(4-fluorophenyl)thio]-5-methyl-3-pyrazolamine]",2.34 µM
8,"CC(C)n1c(=N)c(C(=O)NCCc2ccccc2)cc2c(=O)n3ccccc3nc21 [2-Imino-1-isopropyl-10-oxo-1,10-dihydro-2H-1,9,10a-triaza-anthracene-3-carboxylic acid phenethyl-amide]",> 45 µM
9,"CCCCC(=O)NC(Nc1nc(C2CC2)cs1)(C(=O)OCC)C(F)(F)F (stereo not drawn) [2-[(4-cyclopropyl-2-thiazolyl)amino]-3,3,3-trifluoro-2-(1-oxopentylamino)propanoic acid ethyl ester]",9.87 µM
10,"CCC(C)NC(=O)c1c(N)n(Cc2ccc3c(c2)OCO3)c2nc3ccccc3nc12 (stereo not drawn) [2-amino-1-(1,3-benzodioxol-5-ylmethyl)-N-butan-2-ylpyrrolo[3,2-b]quinoxaline-3-carboxamide]",7.93 µM
11,"CCOC(=O)C1C(=N)OC2=C(C(=O)CCC2)C1c1ccccc1OCC (stereo not drawn) [2-amino-4-(2-ethoxyphenyl)-5-oxo-4,6,7,8-tetrahydro-1-benzopyran-3-carboxylic acid ethyl ester]",18.5 µM
12,"Nc1c(C(=O)NCc2ccco2)c2nc3ccccc3nc2n1CCN1CCCCC1 [2-amino-N-(2-furanylmethyl)-1-[2-(1-piperidinyl)ethyl]-3-pyrrolo[3,2-b]quinoxalinecarboxamide]",> 45 µM
13,Cc1ccc(-c2cc(-c3ccc(Cl)cc3)c(C#N)c(N)n2)o1 [2-azanyl-4-(4-chlorophenyl)-6-(5-methylfuran-2-yl)pyridine-3-carbonitrile],> 45 µM
14,Cc1nc(-c2ccccc2)cc(N2CCCC2)n1 [2-methyl-4-phenyl-6-(1-pyrrolidinyl)pyrimidine],> 45 µM
15,"Cc1cc(C)n(-c2nc(NCCCO)c3c4c(sc3n2)CCCC4)n1 [3-[[2-(3,5-dimethyl-1-pyrazolyl)-5,6,7,8-tetrahydro-[1]benzothiolo[2,3-d]pyrimidin-4-yl]amino]-1-propanol]",4.28 µM
16,"c1ccc(-c2nnc(N3CCOCC3)nc2-c2ccccc2)cc1 [4-(5,6-diphenyl-1,2,4-triazin-3-yl)morpholine]",6.63 µM
17,"CCOC(=O)N1CCN(C(=O)c2nn(-c3cc(OC)cc(OC)c3)c(=O)c3ccccc23)CC1 [4-[3-(3,5-dimethoxyphenyl)-4-keto-phthalazine-1-carbonyl]piperazine-1-carboxylic acid ethyl ester]",> 45 µM
18,"c1ccc(C(Cc2nc(-c3ccncc3)no2)c2ccccc2)cc1 [4-[5-(2,2-diphenylethyl)-1,2,4-oxadiazol-3-yl]pyridine]",5.24 µM
19,"CCOc1ccc(-c2nc(-c3ccncc3)no2)cc1OCC [4-[5-(3,4-diethoxyphenyl)-1,2,4-oxadiazol-3-yl]pyridine]",2.77 µM
20,CCCN(CCC)CCCNC(=O)CC1Nc2ccccc2NC1=O (stereo not drawn) [MLS000046817],> 45 µM
21,CCCCn1c(NC(=O)c2ccc(F)cc2)c(C#N)c2nc3ccccc3nc21 [MLS000055622],> 45 µM

# Same assay, conditions: inactive by the depositor's call
row,Compound,EC50
1,Cc1cc(-n2c(=O)c(C#N)cc3c(=O)n4ccccc4nc32)no1,26.4 µM
2,O=C(NC1=NCCS1)c1cc(-c2ccccc2)nn1-c1ccccc1,41.7 µM
3,"Cc1cccn2c(=O)c3cc(C(=O)NC(C)c4ccccc4)c(=N)n(CCCn4ccnc4)c3nc12 (stereo not drawn) [1-(3-imidazol-1-ylpropyl)-2-imino-10-methyl-5-oxo-N-(1-phenylethyl)dipyrido[3,4-c:1',2'-f]pyrimidine-3-carboxamide]",17.4 µM
4,"COc1ccc(CCn2c(C)cc(C(=O)CSc3nnnn3C)c2C)cc1 [1-[1-[2-(4-methoxyphenyl)ethyl]-2,5-dimethyl-3-pyrrolyl]-2-[(1-methyl-5-tetrazolyl)thio]ethanone]",18.6 µM
5,CC(Oc1ccccc1Br)C(=O)N1CCc2ccccc21 (stereo not drawn) [1-[2-(2-bromophenoxy)propanoyl]indoline],25.2 µM
6,"Cc1cc(C)n(-c2nc(NCc3cccnc3)c3c4c(sc3n2)COC(C)(C)C4)n1 [2-(3,5-dimethyl-1-pyrazolyl)-6,6-dimethyl-N-(3-pyridinylmethyl)-5,8-dihydropyrano[4,5]thieno[1,2-c]pyrimidin-4-amine]",15.3 µM
7,"COCCNc1nc(-n2nc(C)cc2C)nc2sc3c(c12)CCCC3 [2-(3,5-dimethyl-1-pyrazolyl)-N-(2-methoxyethyl)-5,6,7,8-tetrahydro-[1]benzothiolo[2,3-d]pyrimidin-4-amine]",13.3 µM
8,"COc1ccc(Nc2nc(Nc3ccc(OC)cc3)nc(-n3[nH]c(=O)c(C)c3C)n2)cc1 [2-[4,6-bis(4-methoxyanilino)-1,3,5-triazin-2-yl]-3,4-dimethyl-1H-pyrazol-5-one]",14.7 µM
9,OCCN1CCN(c2nc(-c3ccccc3)c3cc(Cl)ccc3n2)CC1 [2-[4-(6-chloranyl-4-phenyl-quinazolin-2-yl)piperazin-1-yl]ethanol],108 µM
10,"N#CCSc1nnc(-c2ccccc2)c(-c2ccccc2)n1 [2-[(5,6-diphenyl-1,2,4-triazin-3-yl)sulfanyl]acetonitrile]",47.4 µM
11,"Nc1c(C(=O)NCCc2ccccc2)c2nc3ccccc3nc2n1CCN1CCOCC1 [2-amino-1-(2-morpholin-4-ylethyl)-N-(2-phenylethyl)pyrrolo[3,2-b]quinoxaline-3-carboxamide]",37.5 µM
12,"COc1ccc(CCn2c(N)c(C(=O)NCc3ccco3)c3nc4ccccc4nc32)cc1OC [2-amino-1-[2-(3,4-dimethoxyphenyl)ethyl]-N-(2-furanylmethyl)-3-pyrrolo[3,2-b]quinoxalinecarboxamide]",45 µM
13,"CCCCCCn1c(N)c(C(=O)NCCN2CCOCC2)c2nc3ccccc3nc21 [2-amino-1-hexyl-N-(2-morpholin-4-ylethyl)pyrrolo[3,2-b]quinoxaline-3-carboxamide]",42.3 µM
14,"Nc1c(C(=O)NCc2ccc3c(c2)OCO3)c2nc3ccccc3nc2n1CCCN1CCOCC1 [2-amino-N-(1,3-benzodioxol-5-ylmethyl)-1-(3-morpholin-4-ylpropyl)pyrrolo[3,2-b]quinoxaline-3-carboxamide]",19.1 µM
15,"COc1ccc(Cn2c(N)c(C(=O)NCc3ccco3)c3nc4ccccc4nc32)cc1 [2-amino-N-(2-furanylmethyl)-1-[(4-methoxyphenyl)methyl]-3-pyrrolo[3,2-b]quinoxalinecarboxamide]",19.8 µM
16,"CC(C)OCCCNC(=O)c1c(N)n(Cc2cccs2)c2nc3ccccc3nc12 [2-amino-N-(3-propan-2-yloxypropyl)-1-(thiophen-2-ylmethyl)pyrrolo[3,2-b]quinoxaline-3-carboxamide]",22.2 µM

row,Compound,EC50
1,"Nc1c(C(=O)NCCN2CCOCC2)c2nc3ccccc3nc2n1CCc1ccccc1 [2-amino-N-[2-(4-morpholinyl)ethyl]-1-(2-phenylethyl)-3-pyrrolo[3,2-b]quinoxalinecarboxamide]",178 µM
2,"CCOc1ccc(-c2noc(-c3ccncc3)n2)cc1OCC [3-(3,4-diethoxyphenyl)-5-(4-pyridyl)-1,2,4-oxadiazole]",11.6 µM
3,"CCSc1nc(N2CCOCC2)c2c(c1C#N)CCCC2 [3-(ethylthio)-1-(4-morpholinyl)-5,6,7,8-tetrahydroisoquinoline-4-carbonitrile]",14.5 µM
4,"O=c1c2ccccc2nnn1CSc1nnc(C2COc3ccccc3O2)n1-c1ccccc1 (stereo not drawn) [3-[[5-(2,3-dihydro-1,4-benzodioxin-3-yl)-4-phenyl-1,2,4-triazol-3-yl]sulfanylmethyl]-1,2,3-benzotriazin-4-one]",29.5 µM
5,"CCCn1c(=O)c2ccccc2n2c(SCc3c(C(=O)OCC)oc4ccccc34)nnc12 [3-[[(5-keto-4-propyl-[1,2,4]triazolo[4,3-a]quinazolin-1-yl)thio]methyl]coumarilic acid ethyl ester]",23.5 µM
6,"O=C(Oc1ccc(-c2nnco2)cc1)N(c1ccccc1)c1ccccc1 [4-(1,3,4-oxadiazol-2-yl)phenyl diphenylcarbamate]",14.1 µM
7,"COc1ccccc1Oc1cc(C#N)c(C#N)cc1-n1nnc2ccccc21 [4-(1-benzotriazolyl)-5-(2-methoxyphenoxy)benzene-1,2-dicarbonitrile]",17.2 µM
8,"Cc1ccc(C(C)C)c(OCc2nc(-c3nonc3N)no2)c1 [4-[5-[(5-methyl-2-propan-2-yl-phenoxy)methyl]-1,2,4-oxadiazol-3-yl]-1,2,5-oxadiazol-3-amine]",74.6 µM
9,"c1ccc(-c2nc3nonc3nc2-c2ccccc2)cc1 [5,6-diphenyl-[1,2,5]oxadiazolo[3,4-b]pyrazine]",41.6 µM
10,"c1ccc(C(Cc2nc(-c3ccccn3)no2)c2ccccc2)cc1 [5-(2,2-diphenylethyl)-3-(2-pyridinyl)-1,2,4-oxadiazole]",21.1 µM
11,"c1ccc(C(Cc2nc(-c3cccnc3)no2)c2ccccc2)cc1 [5-(2,2-diphenylethyl)-3-(3-pyridinyl)-1,2,4-oxadiazole]",13.5 µM
12,"CCOc1ccc(-c2nc(-c3ccccc3)no2)cc1OCC [5-(3,4-diethoxyphenyl)-3-phenyl-1,2,4-oxadiazole]",19.2 µM
13,"Cn1c(=O)c2c(-c3ccccc3)n(C3CCCCC3)cc2n(C)c1=O [6-cyclohexyl-1,3-dimethyl-5-phenyl-pyrrolo[3,4-d]pyrimidine-2,4-dione]",31.2 µM
14,"C/C(Cl)=C/Cn1c(N2CCCC2)nc2c1c(=O)n(C)c(=O)n2C [7-((Z)-3-Chloro-but-2-enyl)-1,3-dimethyl-8-pyrrolidin-1-yl-3,7-dihydro-purine-2,6-dione]",38.5 µM
15,COCCCn1c(N)c(C(=O)NCCC(C)C)c2nc3ccccc3nc21 [MLS000041744],31.4 µM
16,O=C(NCc1ccco1)c1cc2ccc(O)cc2oc1=O [MLS000049147],17.7 µM
